In US20190369111A1, “MOLECULAR KINETICS EVALUATION METHOD AND SCREENING METHOD” (Tokyo University of Science Foundation, priority 2016, published 2019):

Molecular target: T1, endogenous wild-type K-Ras protein (Homo sapiens, UniProt P01116)
T1 construct: an endogenous wild-type K-Ras protein and wild-type H-Ras protein in HeLa cells; endogenous in cells; host or cells: HeLa cells
Experiment: Degradation of endogenous wild-type K-Ras protein in HeLa cells, Western blot analysis
Type: cell-based
Details: 48 hours after addition
Description: HeLa cells were seeded in a 24-well plate at a cell density of 8×10^4 cells/well, and then cultured under conditions of 37° C. and 5 vol % CO2 for 16 hours.
After 16 hours from cell seeding, TUS-007 was added to HeLa cells as follows. As a medium, a serum-free medium (37° C.) in which 1 mass % L-glutamine solution (Sigma-Aldrich) was added to D-MEM (high D-glucose, phenol red, sodium pyruvate (Wako Pure Chemical Industries, Ltd.)) was used. It is noted that the L-glutamine solution was added immediately before use. A DMSO solution containing TUS-007 was mixed with the medium so that the concentration of DMSO was 1 vol %, and added to each well at 500 μL/well, and cultured under conditions of 37° C. and 5 vol % CO2. As a control, DMSO was used.
The medium was removed 48 hours after addition of TUS-007, and then PBS was added to wash the cells. […]
After electrophoresis, proteins were transferred to a PVDF membrane (Immobion™-P, Millipore) under conditions of 100 V and 2 hours using a tank-type blotting device and a transfer buffer (25 mM Tris-HCl, 195 mM glycine, 0.01% SDS, 15% methanol). […] Subsequently, the membrane was treated with a chemiluminescence reagent Immobilon™ Western (Millipore), and then chemiluminescence was detected using a lumino image analyzer LAS-3000 (FUJIFILM Corporation). […]

T1 sequence (P01116 1-188 isoform P01116-2): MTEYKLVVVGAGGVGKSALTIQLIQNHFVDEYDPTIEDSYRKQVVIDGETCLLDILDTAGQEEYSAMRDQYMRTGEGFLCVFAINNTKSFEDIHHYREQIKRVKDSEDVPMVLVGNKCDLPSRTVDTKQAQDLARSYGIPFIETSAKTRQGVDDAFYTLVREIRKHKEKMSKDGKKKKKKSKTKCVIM

## CC[C@@H](C)[C@H](NC(=O)CCCCCCNC(=O)[C@H](CC(C)C)NC(=O)CNC(=O)c1cc(Cl)ccc1Cl)C(=O)Nc1ccc2[nH]c(Cc3c[nH]c4ccccc34)nc2c1 [TUS-007]
  amount of endogenous wild-type K-Ras protein: reduced
